Results taken from PMC10761937, “Functional engineering of human iPSC‐derived parasympathetic neurons enhances responsiveness to gastrointestinal hormones” (FEBS Open Bio, 2023).
Where no end group is shown, it is not given here.

Experiments:
HTR3A‐neurons = assay: Ca^2+ imaging, directly transduced HTR3A‐neurons; assay type: cell-based, human; conditions: 100 μM 5‐HT; HTR3A‐neurons (transduced during differentiation) day 35; Fluo‐8 AM; n = 20; Student's t‐test vs. 0 μM
Procedure: (§1) Before initiating differentiation, the iPSCs (1–2 × 10^5 cells·cm^−2; Cell lines and cell culture section) were transferred to 6‐well plates (Corning, Inc., Corning, NY, USA) coated with 2‐methacryloyloxyethyl phosphorylcholine (MPC) polymer (Lipidure CM5206E; NOF, Tokyo, Japan). The cells were maintained in mTeSR1 cGMP medium containing 10 μM Y‐27632 (Fujifilm Wako Pure Chemical Industries) for 2 or 3 days to form embryoid body (EBs) in a rotary shaker at 95 r.p.m. (OS‐762RC; Optime, Tokyo, Japan). Subsequently, iPSCs were differentiated into neural crest cells (NCCs), as previously reported. Briefly, NCCs were induced from Ebs using knockout serum replacement (KSR) medium and N2 medium with graded addition of nerve growth factors and signaling factors. KSR medium was composed of DMEM‐F12 (Fujifilm Wako Pure Chemical Industries), 20% KSR (Thermo Fisher Scientific), 1% NEAA, 1% monothioglycerol (Fujifilm Wako Pure Chemical Industries), and 1% P/S. N2 medium consisted of DMEM‐F12, 1% N2 supplement (Fujifilm Wako Pure Chemical Industries), 1% NEAA, and 1% P/S. When EB formation was considered day 0 of induction, the medium was changed at days 2, 5, 7, 9, and 12. […]

rat nodal ganglion cells = conditions: various concentrations; ref [31], [32], [33], [34]; cited from earlier work
From the text: Previous reports indicate that rat nodal ganglion cells respond to various concentrations of hormones, including CCK, GLP1, PYY, and 5‐HT [31, 32, 33, 34]. […] However, it is noteworthy that the overexpression of these receptors in our model may not reconstruct natural expres ...

HTR3A = assay: Ca^2+ imaging, HTR3A‐HEK293T cells; assay type: cell-based, human; conditions: Fluo‐8 AM, Ringer's solution pH 7.4, ΔF/F 0, n = 10
Procedure: (§2) HEK293T cells (Lenti‐X 293T Cell line; TaKaRa, Shiga, Japan) were maintained in Dulbecco's Modified Eagle Medium (DMEM; Fujifilm Wako Pure Chemical Industries, Osaka, Japan) supplemented with 10% fetal bovine serum (Biowest, Nuaillé, France), 1% non‐essential amino acids (NEAA) (Fujifilm Wako Pure Chemical Industries), and 1% penicillin–streptomycin (P/S) (Fujifilm Wako Pure Chemical Industries) and cultured in non‐coated culture plates at 37 °C and in an incubator with 5% CO2. The culture medium was replaced every 2–3 days. At 80–90% confluence, the cell colonies were digested into single cells using TrypLE Express (Thermo Fisher Scientific). The resulting cells were used for lentiviral transfection and agonist experiments.
(§3) Figure S1 presents the protocol used for this experiment. Lentiviral vectors were acquired from VectorBuilder (VectorBuilder Japan, Inc., Kanagawa, Japan). […]
(§4) Transduced HEK293T and neurons were incubated with 10 μM Fluo‐8 AM, a calcium indicator (AAT Bioquest, Pleasanton, CA, USA), in each culture medium (Cell lines and cell culture and Induction to parasympathetic neurons sections) at 37 °C for 30 min. […] Fluorescence (excitation: 490 nm, emission: 525 nm) was detected using a confocal spinning disk confocal laser scanning unit (CSU‐W1; Yokogawa Electric, Tokyo, Japan) and an LED light (X‐Cite 120LED; Opto Science, Tokyo, Japan). […]

CCKAR = assay: Ca^2+ imaging, CCKAR‐HEK293T cells; assay type: cell-based, human; conditions: Fluo‐8 AM, Ringer's solution pH 7.4, ΔF/F 0, n = 10, Dunnett's test vs. 0 nM
Procedure: as §2, §3, §4

CCKAR‐neurons [1] = assay: MEA recording of neuronal firing, CCKAR‐neurons; assay type: cell-based, human; conditions: 100 nM vs. 0 nM CCK‐33: P = 0.018; day 27; 0 nM n = 128 electrodes, 100 nM n = 57 electrodes; 5 min before and after ligand addition
Procedure: as §1

CCKAR‐neurons [2] = assay: Ca^2+ imaging, CCKAR‐neurons (iPSC‐derived); assay type: cell-based, human; conditions: 100 nM CCK‐33; CCKAR‐neurons day 35; Fluo‐8 AM; ΔF stim/F 0; n = 20; Student's t‐test vs. 0 nM
Procedure: as §1

GLP2R‐neurons = assay: Ca^2+ imaging, directly transduced GLP2R‐neurons; assay type: cell-based, human; conditions: 100 nM GLP2; GLP2R‐neurons (transduced during differentiation) day 35; Fluo‐8 AM; n = 20
Procedure: as §1

GLP2R = assay: Ca^2+ imaging, GLP2R‐HEK293T cells; assay type: cell-based, human; conditions: Fluo‐8 AM, Ringer's solution pH 7.4, ΔF/F 0, n = 20
Procedure: as §2, §3, §4

For `NCCc1c[nH]c2ccc(O)cc12` [5‐HT, 5‐hydroxytryptamine], the “Intracellular Ca^2+ concentration” value (HTR3A‐neurons) is given as “increased intracellular Ca^2+ concentration”, the “Response of rat nodal ganglion cells” value (rat nodal ganglion cells) is given as “respond” and the “Concentration giving response (intracellular Ca^2+ concentration)” value (HTR3A) is given as greater than 10 µM.
For “CCK‐8: CCK‐Octapeptide (26–33) (CCK‐8) (4100‐v; Peptide Institute, Inc.) (DYMGWMDF; ends and bridges not checked; UniProt P06307 96-103, looked up)”, the “Concentration giving response (change in intracellular Ca^2+ concentration)” value (CCKAR) was greater than 10 nM.
With “CCK‐33: CCK‐33 (4201‐s; Peptide Institute, Inc.) (KAPSGRMSIVKNLQNLDPSHRISDRDYMGWMDF; ends and bridges not checked; UniProt P06307 71-103, looked up)” the “Concentration giving response (change in intracellular Ca^2+ concentration)” value (CCKAR) was greater than 100 nM, the “Neuronal firing frequency change rate” value (CCKAR‐neurons [1]) was “significantly increased the neuronal firing frequency change rate” and the “Intracellular Ca^2+ concentration” value (CCKAR‐neurons [2]) was “significantly increased the intracellular Ca^2+ concentration”.
For “GLP2: GLP2 (4276‐v; Peptide Institute, Inc.) (HADGSFSDEMNTILDNLAARDFINWLIQTKITD; Glucagon-like peptide 2; UniProt P01275 146-178, looked up)”, the “Percentage change in fluorescence intensity” value (GLP2R‐neurons) was 3%, the “Response in Ca^2+ imaging” value (GLP2R‐neurons) was “responded slightly” and the “Concentration giving response (Ca^2+ imaging)” value (GLP2R) was greater than 100 nM.
